Laboratory results as given in article PMC8955853, “New Sorbicillinoids with Tea Pathogenic Fungus Inhibitory Effect from Marine-Derived Fungus Hypocrea jecorina H8” (Marine Drugs, 2022).
Converted amounts (≈) assume the structure as drawn. “Also recorded” adds a separate entry of the source. Like-named read-outs stand apart in the source and are kept apart here.

Columns and labels:
Pestalotiopsis theae = assay: Antifungal activity assay, growth inhibition of tea pathogenic fungus; assay type: cell-based; conditions: for IC50: Pseudopestalotiopsis theae, read-out: ED50, antifungal activity against Pestalotiopsis theae; for fold stronger anti-tea pathogenic fungus effect than hexaconazole: compared to positive control hexaconazole (24.25 ± 1.57 µg/mL)
Protocol: Compounds 1 to 11 were evaluated for antifungal activities by a paper disc inhibition assay.
Initial evaluations of the antifungal activity of the purified compounds were conducted against tea pathogenic fungus P. theae in six-well microplates as described by Xia Yan with certain modifications. The final concentrations of each compound in the wells were 80, 40, 20, 10, 5, and 2.5 µg/mL (two-fold dilutions). DMSO and hexaconazole were used as a blank control and positive control, respectively. The ED50 (μg/mL) values were calculated statistically using Probit analyses.

zebrafish embryos = assay: Zebrafish embryotoxicity and developmental toxicity assay; assay type: in vivo; conditions: for effects on mortality rate and malformation of zebrafish: 0.625 μM for 24 h and 10 μM for 72 h (Figure 4c); for change of effect on zebrafish embryo mortality when treatment prolonged to 72 h: 72 h versus 24 h (Figure 4b)
Protocol: Figure 4 Embryotoxicity and developmental toxicity assay; 15 zebrafish embryos per condition were exposed to compounds at the concentrations of 10, 5, 2.5, 1.25, and 0.625 μM, and 0.1% DMSO was used as blank control. (a) The mortality rate of 24 embryo treated with compounds; (b) The mortality rate of 72 embryo treated with compounds; (c) The impact on the malformation of zebrafish treated with compounds) The statistics of 24 and 72 h mortality rate; © Morphology of 24 h embryo or 72 h zebrafish larvae treated with compounds or control.
Wild-type (AB strain) zebra fish (Danio rerio) were used in this test. Compounds 5, 6, 8, 9, and 10 were dissolved in DMSO (10 mM) and stored at −20 °C. Toxicity evaluations were analyzed regarding the anti-proliferative effects on embryos according to the literature. In brief, 15 zebrafish embryos per condition were exposed to compounds at the concentrations of 10, 5, 2.5, 1.25, and 0.625 μM, and 0.1% DMSO was used as the vehicle control. A Leica stereomicroscope was used to observe the embryos every 24 h.

[1] = tested at 80, 40, 20, 10, 5 and 2.5 µg/mL, Probit analysis

Compound: CCC12C(=O)OC(C)(C(=O)C(C)=C1CC(C)=O)C2CC(=O)C=CC=CCO (stereo not drawn) [Compound 1, trichodermolide C]
- IC50 (Pestalotiopsis theae; [1]): > 100 µg/mL

Compound: CC=CC=CC(O)CC1C2(C)OC(=O)C1(CC)C(CC(C)O)=C(C)C2=O (stereo not drawn) [Compound 2, trichodermolide D]
- IC50 (Pestalotiopsis theae; [1]): > 100 µg/mL

Compound: CC=CC=CC(O)=C1C(=O)C2(C)C3C(=C(O)CC(O)C=CC)C(=O)C4(C)C1C1(C)OC4(O)C3(C)OC12O (stereo not drawn) [Compound 3, 7,7′,9′-hydroxy-trichodimerol]
- IC50 (Pestalotiopsis theae): > 100 µg/mL

Compound: Cc1cc(C(=O)CC(O)C(O)C(C)O)c(O)c(C)c1O (stereo not drawn) [Compound 4, 1-(2,4-dihydroxy-3,5-dimethylphenyl)-3,4,5-trihydroxyhexan-1-one]
- IC50 (Pestalotiopsis theae; [1]): > 100 µg/mL

Compound: CC=CC=CC(O)=C1CC(C)(O)C2(O)OC3(C)C(O)=C(C)C(=O)C(=C(O)C=CC=CC)C3C2(C)C1=O (stereo not drawn) [Compound 5, isobisvertinol A]
- effects on mortality rate and malformation of zebrafish (zebrafish embryos): greater effects than other compounds
- change of effect on zebrafish embryo mortality when treatment prolonged to 72 h (zebrafish embryos): did not change greatly
- IC50 (Pestalotiopsis theae; [1]): 9.13 ± 1.25 µg/mL (≈ 18.3 µM)
- fold stronger anti-tea pathogenic fungus effect than hexaconazole (Pestalotiopsis theae): ~3 fold

Compound: C/C=C/CCC(=O)c1cc(C)c(O)c(C)c1O [Compound 6, 2′,3′-dihydrosorbicillin]
- change of effect on zebrafish embryo mortality when treatment prolonged to 72 h (zebrafish embryos): did not change greatly
- IC50 (Pestalotiopsis theae; [1]): 2.04 ± 1.24 µg/mL (≈ 8.71 µM)

Compound: C/C=C/C=C/C(=O)c1cc(C)c(O)cc1O [Compound 7, 6-demethylsorbicillin]
- IC50 (Pestalotiopsis theae; [1]): > 100 µg/mL

Compound: C/C=C/C=C/C(=O)c1cc(C)c(O)c(C)c1O [Compound 8, sorbicillin]
- zebrafish embryos killed (zebrafish embryos; 0.625 μM for 24 h): more than 50%
- effects on mortality rate and malformation of zebrafish (zebrafish embryos): greater effects than other compounds
- mortality rate of zebrafish embryo (zebrafish embryos; 0.625 μM, 72 h (Figure 4b)): ~60%
- zebrafish embryos killed (zebrafish embryos; 10 μM for 72 h): more than 50%
- IC50 (Pestalotiopsis theae; [1]): 18.2 ± 1.29 µg/mL (≈ 78.4 µM)

Compound: Cc1cc(C(=O)/C=C/C=C/CO)c(O)c(C)c1O [Compound 9, (2E,4E)-1-(2,4-dihydroxy-3,5-dimethylphenyl)-6-hydroxyhexa-2,4-dien-1-one]
- change of effect on zebrafish embryo mortality when treatment prolonged to 72 h (zebrafish embryos): did not change greatly
- IC50 (Pestalotiopsis theae; [1]): 1.83 ± 1.37 µg/mL (≈ 7.37 µM)
- fold stronger anti-tea pathogenic fungus effect than hexaconazole (Pestalotiopsis theae): 13 fold

Compound: C/C=C/C=C/C(O)=C1\C[C@](C)(O)[C@]2(O)O[C@]3(C)C(O)=C(C)C(=O)/C(=C(O)/C=C/C=C/C)[C@@H]3[C@]2(C)C1=O [Compound 11, bisvertinol]
- IC50 (Pestalotiopsis theae; [1]): > 100 µg/mL

Compound: CCCCC(O)(Cn1cncn1)c1ccc(Cl)cc1Cl (stereo not drawn) [hexaconazole, reference compound]
- IC50 (Pestalotiopsis theae; [1]): 24.2 ± 1.57 µg/mL (≈ 77.2 µM)

Compound: trichodimerol [Compound 10]
- toxicity to zebrafish eggs, embryos or larvae (overall, in words) (zebrafish embryos; 10, 5, 2.5, 1.25 and 0.625 μM, observed every 24 h): low toxicity; also recorded: much lower toxicity
- change of effect on zebrafish embryo mortality when treatment prolonged to 72 h (zebrafish embryos): did not change greatly
- ED50, antifungal activity against Pestalotiopsis theae (Pestalotiopsis theae; [1]): 4.68 ± 1.44 µg/mL
